# Data published in US6046171A, “6,11-bridged erythromycin derivatives” (priority 1998, dated 2000).
# Key:
# Type in all cases: cell-based
# [1] = tested on: Staphylococcus aureus ATCC 6538P; test: in vitro antibacterial MIC, agar dilution (BHI agar, Steers replicator); details: organism code AA; 35-37° C., 20 to 24 hours; unit assumed
# Description: (§1) Representative compounds of the present invention were assayed in vitro for antibacterial activity as follows: Twelve petri dishes containing successive aqueous dilutions of the test compound mixed with 10 mL of sterilized Brain Heart Infusion (BHI) agar (Difco 0418-01-5) were prepared. Each plate was inoculated with 1:100 (or 1:10 for slow-growing strains, such as Micrococcus and Streptococcus) dilutions of up to 32 different microorganisms, using a Steers replicator block. […] In addition, a control plate, using BHI agar containing no test compound, was prepared and incubated at the beginning and end of each test.
# (§2) An additional plate containing a compound having known susceptibility patterns for the organisms being tested and belonging to the same antibiotic class as the test compound was also prepared and incubated as a further control, as well as to provide test-to-test comparability.
# (§3) After incubation, each plate was visually inspected. The minimum inhibitory concentration (MIC) was defined as the lowest concentration of drug yielding no growth, a slight haze, or sparsely isolated colonies on the inoculum spot as compared to the growth control.
# [2] = tested on: Streptococcus pyogenes EES61; test: in vitro antibacterial MIC, agar dilution; details: organism code LL; 35-37° C., 20 to 24 hours; unit assumed
# Description: as §1, §2, §3
# [3] = tested on: Staphylococcus aureus NCTC10649M; test: in vitro antibacterial MIC, agar dilution; details: organism code EE; 35-37° C., 20 to 24 hours; unit assumed
# Description: as §1, §2, §3
# [4] = tested on: Streptococcus Pheumoniae 5649; test: in vitro antibacterial MIC, agar dilution; details: organism code ZZA; 35-37° C., 20 to 24 hours; unit assumed
# Description: as §1, §2, §3
# [5] = tested on: Streptococcus pyogenes PIU 2548; test: in vitro antibacterial MIC, agar dilution; details: organism code NN; 35-37° C., 20 to 24 hours; unit assumed
# Description: as §1, §2, §3
# [6] = tested on: Staphylococcus aureus A-5278; test: in vitro antibacterial MIC, agar dilution; details: organism code CC; 35-37° C., 20 to 24 hours; unit assumed
# Description: as §1, §2, §3
# Escherichia coli SS = test: in vitro antibacterial MIC, agar dilution; details: organism code RR; 35-37° C., 20 to 24 hours; unit assumed
# Description: as §1, §2, §3
# [7] = tested on: Staphylococcus epidermidis 3519; test: in vitro antibacterial MIC, agar dilution; details: organism code HH; 35-37° C., 20 to 24 hours; unit assumed
# Description: as §1, §2, §3
# [8] = tested on: Staphylococcus aureus CMX 642A; test: in vitro antibacterial MIC, agar dilution; details: organism code DD; 35-37° C., 20 to 24 hours; unit assumed
# Description: as §1, §2, §3
# [9] = tested on: Staphylococcus aureus A5177; test: in vitro antibacterial MIC, agar dilution; details: organism code BB; 35-37° C., 20 to 24 hours; unit assumed
# Description: as §1, §2, §3
# [10] = tested on: Haemophilis Influenzae DILL AMP R; test: in vitro antibacterial MIC, agar dilution; details: organism code WW; 35-37° C., 20 to 24 hours; unit assumed
# Description: as §1, §2, §3
# [11] = tested on: Micrococcus luteus ATCC 9341; test: in vitro antibacterial MIC, agar dilution; details: organism code OO; 35-37° C., 20 to 24 hours; unit assumed
# Description: as §1, §2, §3
# [12] = tested on: Streptococcus Pheumoniae ATCC6303; test: in vitro antibacterial MIC, agar dilution; details: organism code XX; 35-37° C., 20 to 24 hours; unit assumed
# Description: as §1, §2, §3
# [13] = tested on: Staphylococcus aureus 1775; test: in vitro antibacterial MIC, agar dilution; details: organism code GG; 35-37° C., 20 to 24 hours; unit assumed
# Description: as §1, §2, §3
# [14] = tested on: Streptococcus agalactiae CMX 508; test: in vitro antibacterial MIC, agar dilution; details: organism code KK; 35-37° C., 20 to 24 hours; unit assumed
# Description: as §1, §2, §3
# [15] = tested on: Streptococcus Pheumoniae GYR 1171; test: in vitro antibacterial MIC, agar dilution; details: organism code YY; 35-37° C., 20 to 24 hours; unit assumed
# Description: as §1, §2, §3
# Escherichia coli DC-2 = test: in vitro antibacterial MIC, agar dilution; details: organism code SS; 35-37° C., 20 to 24 hours; unit assumed
# Description: as §1, §2, §3
# [16] = tested on: Staphylococcus aureus CMX 553; test: in vitro antibacterial MIC, agar dilution; details: organism code FF; 35-37° C., 20 to 24 hours; unit assumed
# Description: as §1, §2, §3
# Escherichia coli JUHL = test: in vitro antibacterial MIC, agar dilution; details: organism code QQ; 35-37° C., 20 to 24 hours; unit assumed
# Description: as §1, §2, §3
# [17] = tested on: Enterococcus faecium ATCC 8Q43; test: in vitro antibacterial MIC, agar dilution; details: organism code II; 35-37° C., 20 to 24 hours; unit assumed
# Description: as §1, §2, §3
# [18] = tested on: Mycobacterium smegmatis ATCC 114; test: in vitro antibacterial MIC, agar dilution; details: organism code UU; 35-37° C., 20 to 24 hours; unit assumed
# Description: as §1, §2, §3
# [19] = tested on: Streptococcus bovis A-5169; test: in vitro antibacterial MIC, agar dilution; details: organism code JJ; 35-37° C., 20 to 24 hours; unit assumed
# Description: as §1, §2, §3
# [20] = tested on: Streptococcus pyogenes 930; test: in vitro antibacterial MIC, agar dilution; details: organism code MM; 35-37° C., 20 to 24 hours; unit assumed
# Description: as §1, §2, §3
# [21] = tested on: Nocardia Asteroides ATCC9970; test: in vitro antibacterial MIC, agar dilution; details: organism code VV; 35-37° C., 20 to 24 hours; unit assumed
# Description: as §1, §2, §3
# [22] = tested on: Micrococcus luteus ATCC 4698; test: in vitro antibacterial MIC, agar dilution; details: organism code PP; 35-37° C., 20 to 24 hours; unit assumed
# Description: as §1, §2, §3
# Candida albicans CCH 442 = test: in vitro MIC, agar dilution; details: organism code TT; 35-37° C., 20 to 24 hours; unit assumed
# Description: as §1, §2, §3
# [23] = tested on: Streptococcus Pheumoniae 5979; test: in vitro antibacterial MIC, agar dilution; details: organism code ZZ; 35-37° C., 20 to 24 hours; unit assumed
# Description: as §1, §2, §3
SMILES,MIC [1] [µg/mL],MIC [2] [µg/mL],MIC [3] [µg/mL],MIC [4] [µg/mL],MIC [5] [µg/mL],MIC [6] [µg/mL],MIC (Escherichia coli SS) [µg/mL],MIC [7] [µg/mL],MIC [8] [µg/mL],MIC [9] [µg/mL],MIC [10] [µg/mL],MIC [11] [µg/mL],MIC [12] [µg/mL],MIC [13] [µg/mL],MIC [14] [µg/mL],MIC [15] [µg/mL],MIC (Escherichia coli DC-2) [µg/mL],MIC [16] [µg/mL],MIC (Escherichia coli JUHL) [µg/mL],MIC [17] [µg/mL],further results
"CC[C@H]1OC(=O)[C@H](C)[C@@H](O[C@H]2C[C@@](C)(OC)[C@@H](O)[C@H](C)O2)[C@H](C)[C@@H](O[C@@H]2O[C@H](C)C[C@H](N(C)C)[C@H]2O)[C@](C)(O)C[C@@H](C)C(=O)[C@H](C)[C@@H](O)[C@]1(C)O [Ery. A, Erythromycin A, reference compound]",0.2,0.05,0.39,16,6.2,> 100,0.78,0.39,0.39,3.1,4,0.05,0.06,> 100,0.05,0.06,> 100,0.39,> 100,0.05,MIC [18]: 3.1 µg/mL; MIC [19]: 0.02 µg/mL; MIC [20]: > 100 µg/mL; MIC [21]: 0.1 µg/mL; MIC [22]: 0.2 µg/mL; MIC (Candida albicans CCH 442): > 100 µg/mL
CC[C@H]1OC(=O)[C@H](C)[C@@H](O[C@H]2C[C@@](C)(OC)[C@@H](O)[C@H](C)O2)[C@H](C)[C@@H](O[C@@H]2O[C@H](C)C[C@H](N(C)C)[C@H]2O)[C@@]2(C)C[C@@H](C)C(=O)[C@H](C)[C@H]3N(CC=CCO2)C(=O)O[C@]13C [Example 14],0.2,0.05,0.39,16,6.2,> 100,0.78,0.2,0.2,3.1,8,0.05,0.03,> 100,0.05,0.03,> 100,0.2,50,0.1,MIC [23]: > 128 µg/mL; MIC [18]: 0.78 µg/mL; MIC [19]: 0.05 µg/mL; MIC [20]: > 100 µg/mL; MIC [21]: 0.05 µg/mL; MIC [22]: 0.39 µg/mL; MIC (Candida albicans CCH 442): > 100 µg/mL
CC[C@H]1OC(=O)[C@H](C)[C@@H](O[C@H]2C[C@@](C)(OC)[C@@H](O)[C@H](C)O2)[C@H](C)[C@@H](O[C@@H]2O[C@H](C)C[C@H](N(C)C)[C@H]2O)[C@@]2(C)C[C@@H](C)C(=O)[C@H](C)[C@H]3N(CC(=O)CC=CCO2)C(=O)O[C@]13C [Example 20],3.1,0.2,3.1,1,25,> 100,3.1,3.1,3.1,12.5,8,0.2,0.25,> 100,0.39,0.25,> 100,3.1,> 100,0.2,MIC [23]: 128 µg/mL; MIC [18]: 0.39 µg/mL; MIC [19]: 0.2 µg/mL; MIC [20]: 100 µg/mL; MIC [21]: 0.2 µg/mL; MIC [22]: 0.78 µg/mL; MIC (Candida albicans CCH 442): > 100 µg/mL
CC[C@H]1OC(=O)[C@H](C)C(=O)[C@H](C)[C@@H](O[C@@H]2O[C@H](C)C[C@H](N(C)C)[C@H]2O)[C@@]2(C)C[C@@H](C)C(=O)[C@H](C)[C@H]3N(CCNC(=O)c4ccccc4C=CCO2)C(=O)O[C@]13C [Example 21],1.56,0.1,3.1,2,0.78,> 100,1.56,1.56,3.1,1.56,64,0.2,0.25,> 100,0.1,0.25,> 100,3.1,> 100,0.2,MIC [23]: > 128 µg/mL; MIC [18]: 6.2 µg/mL; MIC [19]: 0.1 µg/mL; MIC [20]: > 100 µg/mL; MIC [21]: 0.39 µg/mL; MIC [22]: 0.39 µg/mL; MIC (Candida albicans CCH 442): > 100 µg/mL
CC[C@H]1OC(=O)[C@H](C)[C@@H](O[C@H]2C[C@@](C)(OC)[C@@H](O)[C@H](C)O2)[C@H](C)[C@@H](O[C@@H]2O[C@H](C)C[C@H](N(C)C)[C@H]2O)[C@@]2(C)C[C@@H](C)C(=O)[C@H](C)[C@H]3N(CC(O)CCCCO2)C(=O)O[C@]13C (some centres unmarked) [Example 22],1.56,0.1,1.56,16,12.5,> 100,0.78,1.56,1.56,12.5,4,0.1,0.06,> 100,0.1,0.06,> 100,1.56,100,0.2,MIC [23]: > 128 µg/mL; MIC [18]: 0.78 µg/mL; MIC [19]: 0.05 µg/mL; MIC [20]: > 100 µg/mL; MIC [21]: 0.1 µg/mL; MIC [22]: 0.39 µg/mL; MIC (Candida albicans CCH 442): > 100 µg/mL
CC[C@H]1OC(=O)[C@H](C)[C@@H](O[C@H]2C[C@@](C)(OC)[C@@H](O)[C@H](C)O2)[C@H](C)[C@@H](O[C@@H]2O[C@H](C)C[C@H](N(C)C)[C@H]2O)[C@@]2(C)C[C@@H](C)C(=O)[C@H](C)[C@H]3N(CCNC(=O)c4ccccc4CC=CCO2)C(=O)O[C@]13C [Example 24],0.78,0.1,1.56,16,12.5,> 100,6.2,1.56,1.56,25,16,0.1,0.03,> 100,0.1,0.03,> 100,0.78,100,0.2,MIC [23]: 128 µg/mL; MIC [18]: 0.39 µg/mL; MIC [19]: 0.1 µg/mL; MIC [20]: > 100 µg/mL; MIC [21]: 0.1 µg/mL; MIC [22]: 1.56 µg/mL; MIC (Candida albicans CCH 442): > 100 µg/mL
